“And” between values parts separate entries of the source, which are not always exact repeats. Identical values can stand only once.
Assays:
Assay in all cases: KINOMEscan competition binding
Conditions in all cases: compound 10.0 µM
[1] = target: EPHB6 (human) (UniProt O15197)
[2] = target: STK16 (human) (UniProt O75716)
[3] = target: FRK (human) (UniProt P42685)
[4] = target: FLT3 (human) (UniProt P36888)
[5] = target: PRKCH (human) (UniProt P24723)
[6] = target: MAP2K2 (human) (UniProt P36507)
[7] = target: TGFBR2 (human) (UniProt P37173)
[8] = target: ABL2 (human) (UniProt P42684)
[9] = target: MARK1 (human) (UniProt Q9P0L2)
[10] = target: TAOK1 (human) (UniProt Q7L7X3)
[11] = target: TEC (human) (UniProt P42680)
[12] = target: MYLK4 (human) (UniProt Q86YV6)
[13] = target: SGK110 (human) (UniProt P0C264)
[14] = target: PHKG1 (human) (UniProt Q16816)
[15] = target: MAP3K15 (human) (UniProt Q6ZN16)
[16] = target: ICK (human) (UniProt Q9UPZ9)
[17] = target: LYN (human) (UniProt P07948)
[18] = target: PIK3C2G (human) (UniProt O75747)
[19] = target: MARK4 (human) (UniProt Q96L34)
[20] = target: CDK17 (human) (UniProt Q00537)
[21] = target: TEK (human) (UniProt Q02763)
[22] = target: RIOK1 (human) (UniProt Q9BRS2)
[23] = target: MAPK1 (human) (UniProt P28482)
[24] = target: DDR2 (human) (UniProt Q16832)
[25] = target: RPS6KA4 KD2 (human) (UniProt O75676)
[26] = target: DYRK1B (human) (UniProt Q9Y463)
[27] = target: CAMKK2 (human) (UniProt Q96RR4)
[28] = target: DMPK (human) (UniProt Q09013)
[29] = target: STK36 (human) (UniProt Q9NRP7)
[30] = target: BMPR1A (human) (UniProt P36894)
[31] = target: MARK3 (human) (UniProt P27448)
[32] = target: EIF2AK2 (human) (UniProt P19525)
[33] = system: ABL1 (human), P00519 [Y253F]
[34] = target: HUNK (human) (UniProt P57058)
[35] = target: PLK1 (human) (UniProt P53350)
[36] = target: STK38 (human) (UniProt Q15208)
[37] = target: MAPKAPK2 (human) (UniProt P49137)
Chain of MAPKAPK2 (human) (P49137 whole entry, looked up): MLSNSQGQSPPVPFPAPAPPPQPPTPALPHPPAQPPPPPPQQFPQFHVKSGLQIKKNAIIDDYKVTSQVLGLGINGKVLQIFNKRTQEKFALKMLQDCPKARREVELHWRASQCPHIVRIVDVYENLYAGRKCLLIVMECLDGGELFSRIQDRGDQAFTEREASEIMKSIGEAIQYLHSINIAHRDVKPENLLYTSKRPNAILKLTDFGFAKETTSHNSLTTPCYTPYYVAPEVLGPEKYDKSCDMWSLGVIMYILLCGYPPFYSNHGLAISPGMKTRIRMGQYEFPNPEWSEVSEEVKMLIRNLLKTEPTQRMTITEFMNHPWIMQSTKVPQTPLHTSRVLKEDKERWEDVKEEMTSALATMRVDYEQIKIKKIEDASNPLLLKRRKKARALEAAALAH

Chain of TAOK1 (human) (Q7L7X3 whole entry, looked up): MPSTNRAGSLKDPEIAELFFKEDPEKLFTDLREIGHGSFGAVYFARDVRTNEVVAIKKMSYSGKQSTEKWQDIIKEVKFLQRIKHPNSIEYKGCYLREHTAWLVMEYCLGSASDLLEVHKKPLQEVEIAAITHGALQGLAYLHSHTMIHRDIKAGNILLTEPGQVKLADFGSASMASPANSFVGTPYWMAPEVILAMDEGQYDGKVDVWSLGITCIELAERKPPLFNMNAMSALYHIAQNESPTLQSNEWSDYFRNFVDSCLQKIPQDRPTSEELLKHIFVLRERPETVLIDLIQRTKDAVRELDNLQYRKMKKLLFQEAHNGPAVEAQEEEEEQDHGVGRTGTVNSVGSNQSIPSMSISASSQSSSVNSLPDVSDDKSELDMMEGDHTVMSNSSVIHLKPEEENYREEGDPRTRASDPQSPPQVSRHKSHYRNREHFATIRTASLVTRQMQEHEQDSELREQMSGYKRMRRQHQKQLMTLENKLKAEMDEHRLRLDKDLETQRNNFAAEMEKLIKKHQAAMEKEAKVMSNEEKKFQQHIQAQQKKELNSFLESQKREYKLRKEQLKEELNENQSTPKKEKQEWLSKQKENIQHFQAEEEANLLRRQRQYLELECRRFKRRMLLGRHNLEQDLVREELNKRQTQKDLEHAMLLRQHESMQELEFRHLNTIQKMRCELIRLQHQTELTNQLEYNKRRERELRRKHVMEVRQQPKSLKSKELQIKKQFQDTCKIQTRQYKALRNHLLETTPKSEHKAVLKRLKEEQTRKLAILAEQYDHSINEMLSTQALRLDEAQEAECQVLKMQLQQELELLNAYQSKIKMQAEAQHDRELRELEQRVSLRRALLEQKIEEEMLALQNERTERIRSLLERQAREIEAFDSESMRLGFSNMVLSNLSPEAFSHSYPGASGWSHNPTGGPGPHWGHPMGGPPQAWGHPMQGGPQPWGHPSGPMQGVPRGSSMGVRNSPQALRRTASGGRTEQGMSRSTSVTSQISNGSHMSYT
Chain of EIF2AK2 (human) (P19525 whole entry, looked up): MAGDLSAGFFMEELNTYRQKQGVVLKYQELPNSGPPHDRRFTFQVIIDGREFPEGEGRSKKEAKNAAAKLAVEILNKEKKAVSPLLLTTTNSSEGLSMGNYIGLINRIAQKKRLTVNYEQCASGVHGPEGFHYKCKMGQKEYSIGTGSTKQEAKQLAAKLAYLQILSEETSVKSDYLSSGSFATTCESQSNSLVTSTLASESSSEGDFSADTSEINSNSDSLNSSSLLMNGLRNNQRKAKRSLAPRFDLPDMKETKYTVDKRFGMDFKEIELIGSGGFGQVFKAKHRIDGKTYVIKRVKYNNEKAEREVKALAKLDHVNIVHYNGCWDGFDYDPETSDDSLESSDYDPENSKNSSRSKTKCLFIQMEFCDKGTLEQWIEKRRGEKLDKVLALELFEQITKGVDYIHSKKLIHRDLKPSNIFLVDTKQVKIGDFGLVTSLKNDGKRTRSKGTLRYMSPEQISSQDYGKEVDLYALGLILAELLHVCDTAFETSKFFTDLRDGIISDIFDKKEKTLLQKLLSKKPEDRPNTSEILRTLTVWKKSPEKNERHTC
Chain of EPHB6 (human) (O15197 whole entry, looked up): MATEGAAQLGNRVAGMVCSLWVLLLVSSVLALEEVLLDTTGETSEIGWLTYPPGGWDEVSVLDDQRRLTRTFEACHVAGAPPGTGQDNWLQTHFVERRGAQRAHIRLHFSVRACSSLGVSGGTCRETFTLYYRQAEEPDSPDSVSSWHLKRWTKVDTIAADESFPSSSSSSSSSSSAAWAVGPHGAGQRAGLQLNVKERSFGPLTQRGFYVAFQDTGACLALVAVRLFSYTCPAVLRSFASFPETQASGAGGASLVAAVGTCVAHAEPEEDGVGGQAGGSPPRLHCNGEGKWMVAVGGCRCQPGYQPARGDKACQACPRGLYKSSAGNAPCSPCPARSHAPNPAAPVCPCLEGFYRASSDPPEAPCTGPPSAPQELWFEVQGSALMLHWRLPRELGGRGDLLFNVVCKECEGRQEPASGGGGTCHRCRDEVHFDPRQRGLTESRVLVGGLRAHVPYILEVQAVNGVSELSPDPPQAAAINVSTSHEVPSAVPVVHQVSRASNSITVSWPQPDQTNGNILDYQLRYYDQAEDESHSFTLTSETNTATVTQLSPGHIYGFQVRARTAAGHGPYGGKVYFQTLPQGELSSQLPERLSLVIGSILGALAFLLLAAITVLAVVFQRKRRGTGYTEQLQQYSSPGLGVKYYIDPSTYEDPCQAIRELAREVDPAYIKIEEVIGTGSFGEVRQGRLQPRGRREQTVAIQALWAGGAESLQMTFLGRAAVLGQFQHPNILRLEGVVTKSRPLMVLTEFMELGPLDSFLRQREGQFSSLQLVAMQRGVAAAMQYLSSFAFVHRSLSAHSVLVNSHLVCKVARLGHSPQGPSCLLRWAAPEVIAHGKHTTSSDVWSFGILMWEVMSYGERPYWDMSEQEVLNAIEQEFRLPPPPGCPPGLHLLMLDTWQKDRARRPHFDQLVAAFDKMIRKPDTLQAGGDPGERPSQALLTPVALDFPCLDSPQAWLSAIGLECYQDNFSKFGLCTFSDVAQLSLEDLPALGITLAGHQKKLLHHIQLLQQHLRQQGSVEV
Chain of TEC (human) (P42680 whole entry, looked up): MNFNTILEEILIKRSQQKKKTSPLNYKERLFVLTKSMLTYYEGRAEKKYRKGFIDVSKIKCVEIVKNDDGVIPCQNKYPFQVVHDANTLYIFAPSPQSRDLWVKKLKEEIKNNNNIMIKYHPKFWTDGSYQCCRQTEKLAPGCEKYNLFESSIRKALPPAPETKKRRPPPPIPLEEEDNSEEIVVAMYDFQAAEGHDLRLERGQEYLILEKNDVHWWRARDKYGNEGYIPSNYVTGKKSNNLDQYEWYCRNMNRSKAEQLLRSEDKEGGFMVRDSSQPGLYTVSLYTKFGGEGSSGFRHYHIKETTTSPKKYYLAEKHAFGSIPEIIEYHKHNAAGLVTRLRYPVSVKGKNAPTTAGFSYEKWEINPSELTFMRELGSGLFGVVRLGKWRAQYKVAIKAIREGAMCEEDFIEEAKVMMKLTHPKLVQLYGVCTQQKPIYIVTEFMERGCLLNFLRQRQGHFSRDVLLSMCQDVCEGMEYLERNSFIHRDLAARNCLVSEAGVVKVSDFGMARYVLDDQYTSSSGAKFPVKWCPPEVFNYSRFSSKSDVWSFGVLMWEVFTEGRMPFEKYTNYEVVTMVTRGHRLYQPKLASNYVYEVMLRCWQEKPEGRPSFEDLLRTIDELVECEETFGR
Chain of PLK1 (human) (P53350 whole entry, looked up): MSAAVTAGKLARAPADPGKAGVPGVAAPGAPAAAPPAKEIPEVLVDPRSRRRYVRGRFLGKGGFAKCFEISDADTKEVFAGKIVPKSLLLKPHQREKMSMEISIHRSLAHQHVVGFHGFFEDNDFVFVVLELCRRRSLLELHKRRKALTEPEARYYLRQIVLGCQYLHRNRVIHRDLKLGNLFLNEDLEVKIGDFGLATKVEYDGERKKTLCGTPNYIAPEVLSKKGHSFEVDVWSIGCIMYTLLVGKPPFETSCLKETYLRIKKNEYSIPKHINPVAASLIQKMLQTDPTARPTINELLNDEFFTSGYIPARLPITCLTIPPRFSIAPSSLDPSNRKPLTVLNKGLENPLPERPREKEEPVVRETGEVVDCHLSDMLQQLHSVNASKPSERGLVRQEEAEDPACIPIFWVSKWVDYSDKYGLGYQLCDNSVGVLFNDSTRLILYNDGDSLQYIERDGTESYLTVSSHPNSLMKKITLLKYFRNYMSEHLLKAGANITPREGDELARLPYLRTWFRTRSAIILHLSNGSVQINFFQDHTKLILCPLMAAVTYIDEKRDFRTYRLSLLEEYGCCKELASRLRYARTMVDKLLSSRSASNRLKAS
Chain of DDR2 (human) (Q16832 whole entry, looked up): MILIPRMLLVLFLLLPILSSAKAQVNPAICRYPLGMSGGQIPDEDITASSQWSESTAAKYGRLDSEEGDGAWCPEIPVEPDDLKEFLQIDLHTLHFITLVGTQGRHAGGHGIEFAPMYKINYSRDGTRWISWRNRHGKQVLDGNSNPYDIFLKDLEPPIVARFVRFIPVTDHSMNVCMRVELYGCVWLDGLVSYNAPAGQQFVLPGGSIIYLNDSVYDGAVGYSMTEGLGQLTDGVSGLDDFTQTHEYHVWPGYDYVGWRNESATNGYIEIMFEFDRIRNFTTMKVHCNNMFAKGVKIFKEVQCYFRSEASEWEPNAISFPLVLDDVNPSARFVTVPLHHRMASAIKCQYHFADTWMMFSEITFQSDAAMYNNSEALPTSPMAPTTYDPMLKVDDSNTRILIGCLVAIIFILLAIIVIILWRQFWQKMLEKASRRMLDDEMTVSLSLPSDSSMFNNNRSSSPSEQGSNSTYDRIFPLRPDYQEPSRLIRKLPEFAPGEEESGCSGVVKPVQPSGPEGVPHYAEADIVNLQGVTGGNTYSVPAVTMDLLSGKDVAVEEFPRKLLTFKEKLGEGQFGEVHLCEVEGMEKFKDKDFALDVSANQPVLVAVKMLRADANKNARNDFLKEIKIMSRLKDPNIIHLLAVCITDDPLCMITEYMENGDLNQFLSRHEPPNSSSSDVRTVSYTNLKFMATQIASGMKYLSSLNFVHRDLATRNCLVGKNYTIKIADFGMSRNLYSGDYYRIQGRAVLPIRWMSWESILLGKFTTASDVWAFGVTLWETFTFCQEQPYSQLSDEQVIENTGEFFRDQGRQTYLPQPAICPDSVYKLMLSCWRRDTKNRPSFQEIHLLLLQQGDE

kinase still bound, per cent of control [1] [%]	kinase still bound, per cent of control [2] [%]	kinase still bound, per cent of control [3] [%]	kinase still bound, per cent of control [4] [%]	kinase still bound, per cent of control [5] [%]	kinase still bound, per cent of control [6] [%]	kinase still bound, per cent of control [7] [%]	kinase still bound, per cent of control [8] [%]	kinase still bound, per cent of control [9] [%]	kinase still bound, per cent of control [10]	kinase still bound, per cent of control [11] [%]	kinase still bound, per cent of control [12] [%]	kinase still bound, per cent of control [13] [%]	kinase still bound, per cent of control [14] [%]	kinase still bound, per cent of control [15] [%]	kinase still bound, per cent of control [16] [%]	kinase still bound, per cent of control [17] [%]	kinase still bound, per cent of control [18] [%]	kinase still bound, per cent of control [19] [%]	kinase still bound, per cent of control [20] [%]	Compound	also measured
34	100	2.6	100	100	100	100	100	100	17% and 4.8%	100	100	30	100	100	100	100	100	100	100	COc1cc(N2CCN(C)CC2)ccc1Nc1ncc2c(n1)N(C)c1ccccc1C(=O)N2C	kinase still bound, per cent of control [21]: 100%; kinase still bound, per cent of control [22]: 100%; kinase still bound, per cent of control [23]: 100%; kinase still bound, per cent of control [24]: 100%; kinase still bound, per cent of control [25]: 100%; kinase still bound, per cent of control [26]: 100%; kinase still bound, per cent of control [27]: 15%; kinase still bound, per cent of control [28]: 100%; kinase still bound, per cent of control [29]: 100%; kinase still bound, per cent of control [30]: 100%; kinase still bound, per cent of control [31]: 100%; kinase still bound, per cent of control [32]: 100%; kinase still bound, per cent of control [33]: 100%; kinase still bound, per cent of control [34]: 100%; kinase still bound, per cent of control [35]: 9.8%; kinase still bound, per cent of control [36]: 100%; kinase still bound, per cent of control [37]: 100%
5.2	100	100	100	100	100	100	100	100	0.25% and 2.9%	100	100	100	100	100	100	34	100	100	100	CCN(CC)CCCCNc1ncc2c(n1)N(C)C(=O)N(c1c(Cl)c(OC)cc(OC)c1Cl)C2	kinase still bound, per cent of control [21]: 100%; kinase still bound, per cent of control [22]: 100%; kinase still bound, per cent of control [23]: 100%; kinase still bound, per cent of control [24]: 30%; kinase still bound, per cent of control [25]: 100%; kinase still bound, per cent of control [26]: 100%; kinase still bound, per cent of control [27]: 100%; kinase still bound, per cent of control [28]: 100%; kinase still bound, per cent of control [29]: 100%; kinase still bound, per cent of control [30]: 100%; kinase still bound, per cent of control [31]: 100%; kinase still bound, per cent of control [32]: 100%; kinase still bound, per cent of control [33]: 100%; kinase still bound, per cent of control [34]: 100%; kinase still bound, per cent of control [35]: 100%; kinase still bound, per cent of control [36]: 100%; kinase still bound, per cent of control [37]: 100%

Source: the kinase profiling compilation of Christmann-Franck et al. (2016)
